Results: paper PMC8370991, “Structural basis for the inhibition of HTLV-1 integration inferred from cryo-EM deltaretroviral intasome structures” (Nature Communications, 2021)
Read-outs that look alike come from different tables or passages of the source.

Target: T1, recombinant HTLV-1 IN (Human T-cell leukemia virus 1, UniProt P03362)
T1 construct: made in house
Assay: In vitro integration strand transfer assay with HTLV-1 IN
Type: biochemical
Conditions: for HTLV-1 IN strand transfer activity (No drug = 100): INSTI at 634 nM; for IC50 compared with that of RAL: dose-response strand transfer assays
Method: We used in vitro strand transfer assays to screen this small molecule library for its ability to inhibit recombinant HTLV-1 IN. The enzyme was incubated with an oligonucleotide vDNA donor mimic in the presence or absence of INSTIs and was allowed to react with a supercoiled plasmid mimicking target DNA. During the screening, the concentration of each compound was adjusted to 634 nM to provide optimal resolution of efficacy between well- and under-performing compounds.
The donor vDNA that mimics the 3′-processed LTR of HTLV-1 or STLV-1 DNA was preassembled by annealing the U5_S20Q_UP and U5_S20Q_B or MarB43_U5_S30UP or MarB43_U5_S30B oligonucleotides, respectively (Supplementary Table 4) in 100 mM Tris pH 7.4, 400 mM NaCl. For HTLV-1 IN, strand transfer reactions were conducted in a solution of 24.3 mM PIPES pH 6.0, 138.4 mM NaCl, 16.6 mM MgCl2, 5.8 μM ZnCl2, 12.7 mM DTT, 0.53 μM donor DNA and 4 μg of HTLV-1 IN[9],[39]. In brief, the reaction was incubated at RT for 15 min in the presence of an INSTI or dimethyl sulfoxide (DMSO) control and the reaction was started by the addition of 300 ng of pGEM-9Zf(-) supercoiled plasmid DNA. The reaction was incubated for 1 h at 37 °C and stopped by adding 0.5% SDS and 25 mM ethylenediaminetetraacetic acid (EDTA), pH 8.0.
Proteins were degraded by incubation with 30 μg of proteinase K (Roche) at 37 °C for 1 h. DNA was precipitated at −20 °C overnight in the presence of ethanol supplemented with 20 μg of glycogen and then resuspended in 1.5× agarose loading dye. The DNA products were separated by electrophoresis through 1.5% agarose gel and stained with ethidium bromide and imaged using the BioRad GelDox XR + imager. The data were analysed and the IC50 calculated as previously described. In brief, the DNA band that corresponds to the concerted integration product was quantified by densitometry in ImageLab 4.1 (Bio-Rad). All experiments were done in triplicate. Quantified data points were fitted to dose–response curves in Prism 9. The cumulative standard deviation for each drug was calculated as an average of the upper limit and lower limit values: Lowerlimit=IC50/10^logSE(IC50) Upperlimit=IC50×10^logSE(IC50)

[1] = Replicate 1, read-out: HTLV-1 IN strand transfer IC50
[2] = Replicate 2, read-out: HTLV-1 IN strand transfer IC50
[3] = Replicate 3, read-out: HTLV-1 IN strand transfer IC50
[4] = integrase strand-transfer drug titration, n = 3, read-out: HTLV-1 IC50 ± stdev

T1 sequence (P03362 1168-1462): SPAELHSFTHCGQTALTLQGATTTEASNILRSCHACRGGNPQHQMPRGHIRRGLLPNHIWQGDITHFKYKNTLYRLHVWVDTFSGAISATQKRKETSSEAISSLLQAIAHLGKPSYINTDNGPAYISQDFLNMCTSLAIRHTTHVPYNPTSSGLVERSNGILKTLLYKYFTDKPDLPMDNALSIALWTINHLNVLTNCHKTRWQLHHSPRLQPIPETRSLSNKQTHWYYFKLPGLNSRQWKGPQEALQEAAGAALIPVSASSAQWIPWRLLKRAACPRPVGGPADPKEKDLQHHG

| SMILES | HTLV-1 IN strand transfer activity (No drug = 100) (Replicate 1) [%] | HTLV-1 IN strand transfer activity (No drug = 100) (Replicate 2) [%] | HTLV-1 IN strand transfer activity (No drug = 100) (Replicate 3) [%] | IC50 [1] [nM] | IC50 [2] [nM] | IC50 [3] [nM] | IC50 compared with that of RAL | inhibition of HTLV-1 IN in the screen compared with RAL (each compound at 634 nM) | IC50 [4] [nM] |
| --- | --- | --- | --- | --- | --- | --- | --- | --- | --- |
| [N-]=[N+]=NCc1cccc(C(=O)/C=C(\O)C(=O)O)c1 [XZ319, (Z)-4-(3-(azidomethyl)phenyl)-2-hydroxy-4-oxobut-2-enoic acid] | 88.4055 | 92.5212 | 100.53 |  |  |  |  |  |  |
| O=C(O)/C(O)=C/C(=O)c1cc(OCc2ccccc2)cc(OCc2ccccc2)c1 [XZ320, (Z)-4-(3,5-bis(benzyloxy)phenyl)-2-hydroxy-4-oxobut-2-enoic acid, reference compound] | 35.3455 | 62.3815 | 55.2426 |  |  |  |  |  |  |
| O=C(NCc1ccc(F)cc1F)c1c(O)c2cccnc2n(O)c1=O [XZ351, N-(2,4-difluorobenzyl)-1,4-dihydroxy-2-oxo-1,2-dihydro-1,8-naphthyridine-3-carboxamide] | 30.0691 | 57.1529 | 59.6295 |  |  |  |  |  |  |
| O=C(NCc1ccc(F)cc1F)c1c(NCCO)c2cccnc2n(O)c1=O [XZ378, N-(2,4-difluorobenzyl)-1-hydroxy-4-((2-hydroxyethyl)amino)-2-oxo-1,2-dihydro-1,8-naphthyridine-3-carboxamide] | 14.3053 | 44.0798 | 36.7031 | 311 | 474 | 392 | no significant improvement over RAL | outperformed RAL | 397 ± 64 |
| Nc1c(C(=O)NCc2ccc(F)cc2F)c(=O)n(O)c2nc(N3CCOCC3)ccc12 [XZ413, 4-amino-N-(2,4-difluorobenzyl)-1-hydroxy-7-morpholino-2-oxo-1,2-dihydro-1,8-naphthyridine-3-carboxamide] | 103.686 | 92.8191 | 81.1252 |  |  |  |  |  |  |
| Nc1c(C(=O)NCc2ccc(F)cc2F)c(=O)n(O)c2ncc(-c3ccccc3)cc12 [XZ420, 4-amino-N-(2,4-difluorobenzyl)-1-hydroxy-2-oxo-6-phenyl-1,2-dihydro-1,8-naphthyridine-3-carboxamide] | 20.0015 | 29.6468 | 21.6983 | 276 | 499 | 466 | no significant improvement over RAL |  | 411 ± 93 |
| Nc1c(C(=O)NCc2ccc(F)cc2F)c(=O)n(O)c2ncc(CCCOCCO)cc12 [XZ432, 4-amino-N-(2,4-difluorobenzyl)-1-hydroxy-6-(3-(2-hydroxyethoxy)propyl)-2-oxo-1,2-dihydro-1,8-naphthyridine-3-carboxamide] | 18.6132 | 21.9961 | 19.5014 | 177 | 156 | 173 |  |  | 168 ± 17 |
| O=C(NCc1ccc(F)cc1F)c1c(NCCO)c2cc(CCCCCO)cnc2n(O)c1=O [XZ439, N-(2,4-difluorobenzyl)-1-hydroxy-4-((2-hydroxyethyl)amino)-6-(5-hydroxypentyl)-2-oxo-1,2-dihydro-1,8-naphthyridine-3-carboxamide] | 27.6089 | 29.3463 | 25.7676 | 270 | 239 | 232 |  |  |  |
